We go through one compound from patent US8497298B2, “Use of benzo-fused heterocycle sulfamide derivatives for lowering lipids and lowering blood glucose levels” (Janssen Pharmaceutica NV, priority 2005, dated 2013).

The structures appear in SMILES notation.

One assay has as its system db/db mice. As to the kind of experiment: Diabetic db/db Mouse In Vivo Assay (Example 13). To be noted: female db/db mice, A300 mg/kg oral gavage once daily. An excerpt:
Db/db mice are known in the art to be susceptible to Type II diabetes (Sharma K, McCue P, Dunn S R. Am J Physiol Renal Physiol. 2003 June;284(6):F1138-44). The Db/db mice are also known in the art to be a useful model for dylipidemia.
Female db/db mice (C57BL/6J-Lep^db/db, Jackson Laboratories, Bar Harbor, Me., USA) were received at 8 weeks of age and single-housed and fed with regular chow diet. Blood was collected by tail puncture and glucose was monitored with a glucometer (OneTouch Basic, Lifescan, Newtown, Pa.).
Mice at 10 weeks of age were randomized into treatment groups based on glucose values (first criterion, average of 250 mg/dl) and body weight (second criterion, average of 37 gram). The mice were orally gavaged once daily (0.2 ml at 1500-1700 hour) with vehicle control (0.5% methylcellulose, pH7.4) and vehicle containing test compound (A300 mg/kg). On day 11, the mice were fasted for 4 hr during light cycle (food was removed 0600-1000 hour) and blood glucose levels were measured through tail puncture with a glucometer at 1000 hour. The mice were then anaesthetized with sodium pentobarbital (1 ml/kg, i.p, Sleepaway, Fort Dodge, Iowa) and blood was drawn via cardiac puncture and collected into heparinized tubes.
White adipose tissue (WAT) (retroperitoneal fat) and skeletal muscle (gastrocnemius and soleus muscle) were dissected and weighed. Plasma samples were obtained by centrifuge at 2,000 g for 15 minutes at 4° C. and subjected to measurement of insulin, HDL cholesterol and triglyceride.
Data shown below are expressed as the mean and standard error calculated using 9-10 mice per treatment group. The 2 tailed Student's t-Tests were used for statistic analysis. All animal studies complied with the guideline of the Institutional Animal Care and Use Committee.

For assay [1], the system named is Zucker diabetic fatty (ZDF Gmi-fa/fa) rats. As to the kind of experiment: Zucker Diabetic Fatty Rats Assay with 29 day wash-out (Example 16). The assay is classed as in vivo, rat. The note with it: for Blood Glucose Level Day 0: Day 0 (baseline), ad lib fed; for Blood Glucose Level Day 36: then 29 days wash-out. As for the experimental part: Compound #8 was suspended in 0.5% Methocel using a hand held homogenizer to reduce the particle size and a magnetic stir bar and stir plate to keep the particles homogeneously suspended throughout the dosing period. 0.5% Hydroxypropyl Methylcellulose (Methocel) used as vehicle/control. Compound #8 was tested in both diabetic models of mouse and rat.
In this study, female Zucker diabetic fatty (ZDF Gmi-fa/fa) rats were selected for glucose lowering effect. ZDF rats from (Charles River Laboratories, Wilmington, Mass.) at 7 weeks of age were individually housed and fed with C13004 diet (obtained from Research Diets, New Brunswick, N.J.). All of the rats were quarantined for a period of one week before transfer to the animal procedure room. A drop of blood (about 2 microliters) was collected by tail puncture and glucose concentration was detected with a glucometer (OneTouch UltraSmart, Lifescan, Milpitas, Calif.).
ZDF rats at 8 weeks of age were randomized into four treatment groups based on glucose values (first criterion, average of 150 mg/dL) and body weight (second criterion, average of 240 g). 13 rats were allocated into 4 treatment groups of 3 rats each for Compound #8 treated groups and 4 rats for the non-treated group. The three groups were then treated with 10 mg/kg Compound #8, 30 mg/kg Compound #8, and 100 mg/kg Compound #8 in 0.5 methylcellulose, respectively.
The rats were orally gavaged once daily (at 1500-1700 hour) with vehicle control (0.5% Methocel, pH7.4) or vehicle containing Compound #8 for 7 days. The dosing volume was 5 mL/kg body weight (1.2 mL for 250 gram rat). The rats were fed ad lib throughout the study. The rats were then allowed 29 days of wash-out period, where no dosing was administered.
Basal glucose levels after treatments were measured on Day 0 (baseline) and Day 36 (after 7 days dosing and 29 days wash-out) in ad lib fed rats with a glucometer (OneTouch UltraSmart, Lifescan, Milpitas, Calif.) after collecting two microliters of blood through tail puncture.
Data from this study was analyzed using the standard two-tailed Student's t-test and are expressed below as means and standard errors, with results as listed in Table 15 below.

For the compound `NS(=O)(=O)NC[C@H]1COc2cc(Cl)ccc2O1` [Compound #8, (2S)-(−)-N-(6-Chloro-2,3-dihydro-benzo[1,4]dioxin-2-ylmethyl)-sulfamide], in the assay with db/db mice (day 11), the “Retroperitoneal Fat Weight” value came to 1.31 ± 0.07 g. The “Skeletal Muscle Weight” value in the assay with db/db mice (day 11) came out at 0.154 ± 0.00 g. Besides, the “Blood Glucose” value in the assay on db/db mice (day 11, fasted 4 hr) was 210 ± 27 mg/dL. Further, the “HDL Cholesterol” value with db/db mice (day 11, plasma) was 55.9 ± 3.7 mg/dL. The Triglycerides in the assay on db/db mice (day 11, plasma) was 98 ± 41 mg/dL. In the assay with db/db mice (p<0.01 vs vehicle 27.9±1.4), the “fat to lean mass ratio” value came to 23.4±0.9. In addition, the “Insulin levels versus vehicle treated animals” value in the assay on db/db mice (plasma) is given as “not statistically different”. The results for the “Blood Glucose Level Day 0” value in assay [1] (10 mg/kg group), in assay [1] (30 mg/kg group) and in assay [1] (100 mg/kg group) were 222 ± 20 mg/dL, 229 ± 23 mg/dL and 228 ± 18 mg/dL, respectively. The “Blood Glucose Level Day 36” value came to 295 ± 81 mg/dL in assay [1] (10 mg/kg oral once daily 7 days), 247 ± 86 mg/dL in assay [1] (30 mg/kg oral once daily 7 days) and 219 ± 39 mg/dL in assay [1] (100 mg/kg oral once daily 7 days).
